Experimental data as given in patent US20150344540A1, “NOVEL GLP-1 RECEPTOR AGONISTS WITH CHOLESTEROL EFFLUX ACTIVITY” (NOVO NORDISK A/S, priority 2012, published 2015).
Read-outs that look alike come from different tables or passages of the source. Where a SMILES comes first, the peptide text is derived from it. [ ]: non-standard residue; d: D form. Aib = CC(C)(N)C(=O)O

What was measured:
[1] = tested on: Mouse monocyte/macrophage cell line, RAW 264.7; assay: Cholesterol efflux assay (3H-cholesterol, macrophage cell line); format: cell-based; conditions: RAW 264.7, 4 hrs incubation, 0.1% human serum albumin; for 4 h Cholesterol Efflux Emax: ABCA1-mediated efflux
human GLP-1 receptor = human GLP-1 receptor (Homo sapiens, UniProt P43220); assay: Functional GLP-1 receptor assay, in vitro potency (CRE luciferase; whole cells); format: cell-based
Chain of human GLP-1 receptor (P43220 24-463): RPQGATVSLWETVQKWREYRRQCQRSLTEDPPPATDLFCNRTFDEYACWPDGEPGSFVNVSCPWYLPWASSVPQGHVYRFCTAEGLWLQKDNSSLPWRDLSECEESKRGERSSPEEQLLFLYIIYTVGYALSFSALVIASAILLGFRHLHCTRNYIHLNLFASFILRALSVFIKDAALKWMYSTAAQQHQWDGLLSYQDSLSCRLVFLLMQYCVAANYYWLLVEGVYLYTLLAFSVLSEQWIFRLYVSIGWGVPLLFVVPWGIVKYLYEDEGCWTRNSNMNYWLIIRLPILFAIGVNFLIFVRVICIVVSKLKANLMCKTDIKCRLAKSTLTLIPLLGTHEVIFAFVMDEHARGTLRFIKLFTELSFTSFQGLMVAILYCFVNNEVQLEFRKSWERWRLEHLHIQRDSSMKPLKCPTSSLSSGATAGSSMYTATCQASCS

[2] = BHK cells expressing human GLP-1 receptor, 0% HSA, read-out: GLP1R CRE luc 0% HSA EC50 Mean Value
[3] = GLP1R CRE luc 1% HSA EC50 Mean Value, BHK cells expressing human GLP-1 receptor, 1% HSA

**Q.** Which results are given for `CC(C)C[C@H](NC(=O)[C@H](Cc1ccccc1)NC(=O)[C@H](CCC(=O)O)NC(=O)[C@H](CCCCN)NC(=O)C(C)(C)NC(=O)[C@H](CCCCN)NC(=O)[C@H](CCC(=O)O)NC(=O)[C@@H](NC(=O)[C@H](CC(C)C)NC(=O)[C@H](Cc1c[nH]c2ccccc12)NC(=O)[C@H](CCC(N)=O)NC(=O)[C@@H](NC(=O)[C@H](Cc1ccccc1)NC(=O)[C@H](CCC(=O)O)NC(=O)[C@H](CCCCN)NC(=O)[C@@H](NC(=O)[C@H](C)NC(=O)[C@H](CCC(=O)O)NC(=O)CNC(=O)[C@H](CCC(=O)O)NC(=O)[C@H](CC(C)C)NC(=O)[C@H](Cc1ccc(O)cc1)NC(=O)[C@H](CO)NC(=O)[C@H](CO)NC(=O)[C@@H](NC(=O)[C@H](CC(=O)O)NC(=O)[C@H](CO)NC(=O)[C@@H](NC(=O)[C@H](Cc1ccccc1)NC(=O)[C@@H](NC(=O)CNC(=O)[C@H](CCC(=O)O)NC(=O)C(C)(C)NC(=O)[C@@H](N)Cc1c[nH]cn1)[C@@H](C)O)[C@@H](C)O)C(C)C)C(C)C)C(C)C)C(C)C)C(N)=O` [Compound 65, [Aib8,Glu23,Val25,Val29,Gln30,Glu34,Lys35,Aib36,Lys37]-GLP-1-(7-37)-peptidyl-Glu-Phe-Leu amide] (H-H[Aib]EGTFTSDVSSYLEGEAVKEFVQWLVEK[Aib]KEFL-NH2; N-terminus assumed)?
**A.** 4 h Cholesterol Efflux Emax [1]: 96%; EC50 ([1]; read-out: 4 h Cholesterol Efflux EC50, ABCA1-mediated efflux (CPT-cAMP induced minus non-induced)): 410 nM; EC50 (human GLP-1 receptor; GLP1R CRE luc 1% HSA EC50 Mean Value): 0.037 nM

**Q.** With `CC[C@H](C)[C@H](NC(=O)[C@H](Cc1ccccc1)NC(=O)[C@H](CCC(=O)O)NC(=O)[C@H](CCCCN)NC(=O)[C@@H](NC(=O)[C@H](C)NC(=O)[C@H](CCC(=O)O)NC(=O)CNC(=O)[C@H](CCC(=O)O)NC(=O)[C@H](CC(C)C)NC(=O)[C@H](Cc1ccc(O)cc1)NC(=O)[C@H](CO)NC(=O)[C@H](CO)NC(=O)[C@@H](NC(=O)[C@H](CC(=O)O)NC(=O)[C@H](CO)NC(=O)[C@@H](NC(=O)[C@H](Cc1ccccc1)NC(=O)[C@@H](NC(=O)CNC(=O)[C@H](CCC(=O)O)NC(=O)C(C)(C)NC(=O)[C@@H](N)Cc1c[nH]cn1)[C@@H](C)O)[C@@H](C)O)C(C)C)C(C)C)C(=O)N[C@@H](C)C(=O)N[C@@H](Cc1c[nH]c2ccccc12)C(=O)N[C@@H](CC(C)C)C(=O)N[C@H](C(=O)N[C@@H](CCC(=O)O)C(=O)N[C@@H](CCCCN)C(=O)NC(C)(C)C(=O)N[C@@H](CCCCN)C(=O)N[C@@H](CCC(=O)O)C(=O)N[C@@H](Cc1ccccc1)C(=O)N[C@@H](CC(C)C)C(=O)N[C@@H](CCC(=O)O)C(N)=O)C(C)C` [Compound 66, [Aib8,Glu23,Val25,Glu34,Lys35,Aib36,Lys37]-GLP-1-(7-37)-peptidyl-Glu-Phe-Leu-Glu amide] as the compound, how does the “4 h Cholesterol Efflux Emax” value [1] read?
**A.** The value was 102%.

**Q.** And the EC50 (human GLP-1 receptor; [2])?
**A.** The EC50 was 0.101 nM.

**Q.** What about the EC50 (human GLP-1 receptor; [3]) of the same compound?
**A.** The EC50 was 0.039 nM.

**Q.** What does the source list for `CC[C@H](C)[C@H](NC(=O)[C@H](Cc1ccccc1)NC(=O)[C@H](CCC(=O)O)NC(=O)[C@H](CCCCN)NC(=O)[C@@H](NC(=O)[C@H](C)NC(=O)[C@H](CCC(=O)O)NC(=O)CNC(=O)[C@H](CCC(=O)O)NC(=O)[C@H](CC(C)C)NC(=O)[C@H](Cc1ccc(O)cc1)NC(=O)[C@H](CO)NC(=O)[C@H](CO)NC(=O)[C@@H](NC(=O)[C@H](CC(=O)O)NC(=O)[C@H](CO)NC(=O)[C@@H](NC(=O)[C@H](Cc1ccccc1)NC(=O)[C@@H](NC(=O)CNC(=O)[C@H](CCC(=O)O)NC(=O)C(C)(C)NC(=O)[C@@H](N)Cc1c[nH]cn1)[C@@H](C)O)[C@@H](C)O)C(C)C)C(C)C)C(=O)N[C@@H](C)C(=O)N[C@@H](Cc1c[nH]c2ccccc12)C(=O)N[C@@H](CC(C)C)C(=O)N[C@H](C(=O)N[C@@H](CCC(=O)O)C(=O)N[C@@H](CCCCN)C(=O)NC(C)(C)C(=O)N[C@@H](CCCCN)C(=O)N[C@@H](CCC(=O)O)C(=O)N[C@@H](Cc1ccccc1)C(=O)N[C@@H](CC(C)C)C(=O)N[C@@H](CCC(=O)O)C(=O)N[C@@H](CCCCN)C(N)=O)C(C)C` [Compound 70, [Aib8,Glu23,Val25,Glu34,Lys35,Aib36,Lys37]-GLP-1-(7-37)-peptidyl-Glu-Phe-Leu-Glu-Lys amide]?
**A.** 4 h Cholesterol Efflux Emax [1]: 91%; EC50 (human GLP-1 receptor; [2]): 0.157 nM

**Q.** What does the source list for `CC[C@H](C)[C@H](NC(=O)[C@H](Cc1ccccc1)NC(=O)[C@H](CCC(=O)O)NC(=O)[C@H](CCCCN)NC(=O)[C@@H](NC(=O)[C@H](C)NC(=O)[C@H](CCC(N)=O)NC(=O)CNC(=O)[C@H](CCC(=O)O)NC(=O)[C@H](CC(C)C)NC(=O)[C@H](Cc1ccc(O)cc1)NC(=O)[C@H](CO)NC(=O)[C@H](CO)NC(=O)[C@@H](NC(=O)[C@H](CC(=O)O)NC(=O)[C@H](CO)NC(=O)[C@@H](NC(=O)[C@H](Cc1ccccc1)NC(=O)[C@@H](NC(=O)CNC(=O)[C@H](CCC(=O)O)NC(=O)C(C)(C)NC(=O)[C@@H](N)Cc1c[nH]cn1)[C@@H](C)O)[C@@H](C)O)C(C)C)C(C)C)C(=O)N[C@@H](C)C(=O)N[C@@H](Cc1c[nH]c2ccccc12)C(=O)N[C@@H](CC(C)C)C(=O)N[C@H](C(=O)N[C@@H](CC(N)=O)C(=O)N[C@@H](CCCCN)C(=O)NC(C)(C)C(=O)N[C@@H](C)C(=O)N[C@@H](CCC(=O)O)C(=O)N[C@@H](Cc1ccccc1)C(=O)N[C@@H](CC(C)C)C(N)=O)C(C)C` [Compound 73] (H-H[Aib]EGTFTSDVSSYLEGQAVKEFIAWLVNK[Aib]AEFL-NH2)?
**A.** 4 h Cholesterol Efflux Emax [1]: 86%; EC50 (human GLP-1 receptor; [2]): 0.108 nM; EC50 (human GLP-1 receptor; [3]): 0.062 nM

**Q.** What does the source list for `CC[C@H](C)[C@H](NC(=O)[C@H](Cc1ccccc1)NC(=O)[C@H](CCC(=O)O)NC(=O)[C@H](CCCCN)NC(=O)[C@@H](NC(=O)[C@H](C)NC(=O)[C@H](CCC(=O)O)NC(=O)CNC(=O)[C@H](CCC(=O)O)NC(=O)[C@H](CC(C)C)NC(=O)[C@H](Cc1ccc(O)cc1)NC(=O)[C@H](CO)NC(=O)[C@H](CO)NC(=O)[C@@H](NC(=O)[C@H](CC(=O)O)NC(=O)[C@H](CO)NC(=O)[C@@H](NC(=O)[C@H](Cc1ccccc1)NC(=O)[C@@H](NC(=O)CNC(=O)[C@H](CCC(=O)O)NC(=O)C(C)(C)NC(=O)[C@@H](N)Cc1c[nH]cn1)[C@@H](C)O)[C@@H](C)O)C(C)C)C(C)C)C(=O)N[C@@H](CCC(N)=O)C(=O)N[C@@H](Cc1c[nH]c2ccccc12)C(=O)N[C@@H](CC(C)C)C(=O)N[C@@H](CC(C)C)C(=O)N[C@@H](CCC(=O)O)C(=O)N[C@@H](CCCCN)C(=O)NC(C)(C)C(=O)N[C@@H](CCCCN)C(=O)N[C@@H](CCC(=O)O)C(=O)N[C@@H](Cc1ccccc1)C(=O)N[C@@H](CC(C)C)C(N)=O` [Compound 79, [Aib8,Glu23,Val25,Gln30,Leu33,Glu34,Lys35,Aib36,Lys37]-GLP-1-(7-37)-peptidyl-Glu-Phe-Leu amide] (H-H[Aib]EGTFTSDVSSYLEGEAVKEFIQWLLEK[Aib]KEFL-NH2)?
**A.** 4 h Cholesterol Efflux Emax [1]: 100%; EC50 (human GLP-1 receptor; [3]): 0.061 nM

**Q.** Which results are given for `CC(C)C[C@H](NC(=O)[C@H](Cc1ccccc1)NC(=O)[C@H](CCC(=O)O)NC(=O)[C@H](CCCCN)NC(=O)C(C)(C)NC(=O)[C@H](CCCCN)NC(=O)[C@H](CCC(=O)O)NC(=O)[C@H](CC(C)C)NC(=O)[C@H](CC(C)C)NC(=O)[C@H](Cc1c[nH]c2ccccc12)NC(=O)[C@H](CCC(N)=O)NC(=O)[C@@H](NC(=O)[C@H](Cc1ccccc1)NC(=O)[C@H](CCC(=O)O)NC(=O)[C@H](CCCNC(=N)N)NC(=O)[C@@H](NC(=O)[C@H](C)NC(=O)[C@H](CCC(=O)O)NC(=O)CNC(=O)[C@H](CCC(=O)O)NC(=O)[C@H](CC(C)C)NC(=O)[C@H](Cc1ccc(O)cc1)NC(=O)[C@H](CO)NC(=O)[C@H](CO)NC(=O)[C@@H](NC(=O)[C@H](CC(=O)O)NC(=O)[C@H](CO)NC(=O)[C@@H](NC(=O)[C@H](Cc1ccccc1)NC(=O)[C@@H](NC(=O)CNC(=O)[C@H](CCC(=O)O)NC(=O)C(C)(C)NC(=O)[C@@H](N)Cc1c[nH]cn1)[C@@H](C)O)[C@@H](C)O)C(C)C)C(C)C)C(C)C)C(N)=O` [Compound 80, [Aib8,Glu23,Val25,Arq26,Val29,Gln30,Leu33,Glu34,Lys35,Aib36,Lys37]-GLP-1-(7-37)-peptidyl-Glu-Phe-Leu amide] (H-H[Aib]EGTFTSDVSSYLEGEAVREFVQWLLEK[Aib]KEFL-NH2)?
**A.** 4 h Cholesterol Efflux Emax [1]: 108%; EC50 (human GLP-1 receptor; [3]): 0.029 nM

**Q.** What does the source list for `CC[C@H](C)[C@H](NC(=O)[C@H](Cc1ccccc1)NC(=O)[C@H](CCC(=O)O)NC(=O)[C@H](CCCNC(=N)N)NC(=O)[C@@H](NC(=O)[C@H](C)NC(=O)[C@H](CCC(=O)O)NC(=O)CNC(=O)[C@H](CCC(=O)O)NC(=O)[C@H](CC(C)C)NC(=O)[C@H](Cc1ccc(O)cc1)NC(=O)[C@H](CO)NC(=O)[C@H](CO)NC(=O)[C@@H](NC(=O)[C@H](CC(=O)O)NC(=O)[C@H](CO)NC(=O)[C@@H](NC(=O)[C@H](Cc1ccccc1)NC(=O)[C@@H](NC(=O)CNC(=O)[C@H](CCC(=O)O)NC(=O)C(C)(C)NC(=O)[C@@H](N)Cc1c[nH]cn1)[C@@H](C)O)[C@@H](C)O)C(C)C)C(C)C)C(=O)N[C@@H](C)C(=O)N[C@@H](Cc1c[nH]c2ccccc12)C(=O)N[C@@H](CC(C)C)C(=O)N[C@H](C(=O)N[C@@H](CCC(=O)O)C(=O)N[C@@H](CCCCN)C(=O)NC(C)(C)C(=O)N[C@@H](CCCCN)C(=O)N[C@@H](CCC(=O)O)C(=O)N[C@@H](Cc1ccccc1)C(=O)N[C@@H](CC(C)C)C(N)=O)C(C)C` [Compound 81] (H-H[Aib]EGTFTSDVSSYLEGEAVREFIAWLVEK[Aib]KEFL-NH2)?
**A.** 4 h Cholesterol Efflux Emax [1]: 112%; EC50 (human GLP-1 receptor; [2]): 0.076 nM; EC50 (human GLP-1 receptor; [3]): 0.028 nM
